# Values quoted from earlier work, collected in patent US8951536B2, “N-hydroxyamidinoheterocycles as modulators of indoleamine 2,3-dioxygenase” (Incyte Corporation, priority 2005, dated 2015).
# Tests used:
# [1] = test system: HeLa cells co-cultured with peripheral blood lymphocytes (PBLs); settings: Logan et al. 2002
# [2] = test system: pregnant mice (carrying syngeneic or allogeneic fetuses); settings: pregnant mice exposed to 1MT; Munn et al. 1998
# [3] = test system: CD123-positive dendritic cells; settings: mature and immature CD123-positive dendritic cells; Munn et al. 2002
# [4] = test system: P815 tumor; settings: pre-immunized immune-competent mice; Uyttenhove et al.
# [5] = test system: LLC tumors; settings: LLC tumors in C57Bl/6 mice, versus placebo; Friberg et al.
# [6] = test system: tumor growth in mice; settings: Muller et al. 2005
SMILES,reduction in PBL proliferation upon treatment with IL2 [1],rejection of allogeneic concepti [2],IDO suppressive activity on T-cell activity [3],growth of tumors [4],formation of tumors [5],tumor growth with chemotherapeutic agents [6]
Cn1cc(C[C@H](N)C(=O)O)c2ccccc21 [1-methyl-tryptophan],reversed,"rapid, T cell-induced rejection of all allogeneic concept",blocked,,,
Cn1cc(CC(N)C(=O)O)c2ccccc21 (stereo not drawn) [Example 1-MT],,,,inhibited,markedly delayed,can synergize with chemotherapeutic agents to reduce tumor growth in mice
